Experimental data reported in article PMC7835349 (Communications Biology, 2021).
Values joined by “and” are separate entries in the source; they are usually repeats but may differ in a detail not shown here. Equal entries are not always repeated.

How the values were obtained:
cleaved caspase-3 (CC3) = experiment: Cleaved caspase-3 in RS4;11 tumours by MSD ELISA; format: in vivo, C.B-17 SCID mouse; conditions: for CC3 PD fold over vehicle, individual tumours: RS4;11, single dose 10 mg/kg or equivalent
Protocol: Tumours were excised, snap frozen in liquid nitrogen and stored at –80 °C. Tumours were homogenised in lysis buffer containing protease and phosphatase inhibitors, protein concentration determined by Pierce BCA Protein Assay Kit and diluted in lysis buffer to a protein concentration of 0.4 μg/μL. Cleaved caspase-3 (CC3) was measured using the mesoscale cleaved caspase-3 (Asp175) assay whole cell lysate kit according to manufacturer’s instructions. Induction of CC3 was expressed as fold change of treated tumours over vehicle control.

RS4;11 xenograft = experiment: RS4;11 mouse xenograft efficacy (tumour volume); format: in vivo, C.B-17 SCID mouse; parameters: key to tumour volume, individual animals: tumour volume in mm³, length × width²/0.52; conditions: for tumour volume, individual animals: 10 mg/kg; for Tumour volume, Geo Mean: RS4;11 xenograft
Protocol: Female C.B.−17 SCID mice were purchased from Charles River Laboratories. Mice were 5–8 weeks old at the time of tumour implantation. All xenograft studies were conducted at our Association for the Assessment and Accreditation of Laboratory Animal Care accredited facility in Waltham, MA in accordance with ethical regulations described in the guidelines established by the internal Institutional Animal Care and Use Committee. The dendrimer conjugates were formulated in citrate/phosphate buffer pH 5.0, diluted 1:10 with 5% glucose containing 1% w/v Kolliphor HS15, and AZD4320 was formulated in 30% HP-β-CD and dosed as a weekly intravenous (IV) administration at a volume of 5 ml/kg at the indicated doses. Five million RS4;11, five million SUDHL-4 or five million OCI-LY-10 cells were injected subcutaneously in the right flank of mice in a volume of 0.1 ml. Tumour volumes (measured by caliper), animal body weight, and tumor condition were recorded twice weekly for the duration of the study. The tumour volume was calculated (taking length to be the longest diameter across the tumour and width to be the corresponding perpendicular diameter) using the formula: length (mm) x width (mm)^2/0.52. For efficacy studies, mice were randomized based on tumour volumes using stratified sampling and enrolled into control and treatment groups. Tumour growth inhibition from the start of treatment was quantified by measuring the difference in tumour volume between control and treated groups. Survival analysis was evaluated using Mantel-Cox test. Tumours were also taken for bioanalysis.

telemetered rats = experiment: Conscious rat telemetry (QRS amplitude, blood pressure, tolerability); conditions: for QRS amplitude (mV change): individual rats; for QRS amplitude (mV change), Mean: mean of rats;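 as to all read-outs here: male Han Wistar rats carrying implanted telemetry transmitters, with ECG and arterial pressure recorded continuously while unrestrained in their home cage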
Excerpt: Male Han Wistar rats were implanted with HD‐S11 transmitters (Data Sciences International, St. Paul, MN USA) under isoflurane anaesthesia, the telemetry transmitter was placed in the peritoneal cavity, the arterial blood pressure catheter was placed in the terminal abdominal aorta and the ECG electrodes were sutured, one at the dorsal surface of the xiphoid process and one at the anterior mediastinum, close to the right atrium[42]. Animals were allowed to recover for at least 2 weeks and were around 2–3 months at the time of experimentation. The animals were pair‐housed in standard rat cages with a non‐instrumented companion throughout the study. Cages were prepared with bedding material and enrichment.
Telemetry recordings took place in the home cage. […] The animals were removed from the cage temporarily for dosing and blood sampling. Animals were not subject to restraint except where dosing and blood sampling was performed. Data acquisition used Dataquest Open A.R.T.™ with HEM software version 4.2 (Notocord Inc).
For evaluation of AZD4320, n = 8 rats received single doses of 0 (vehicle: 30% Kleptose, pH9) or 10 mg/kg AZD4320, administered as a 30-min intravenous infusion. A cross-over study design was used, with an interval of 7 days between treatments.
Data for all parameters were collected continuously during the recording period. The continuous data from each animal was binned into chosen time intervals of varying length and averaged to generate a single data point for each reported nominal time. Each reported nominal timepoint was then averaged across each of the animals tested for each dose level.

[1] = rat, AZD4320 10 mg/kg, 0 h post dose
[2] = rat, Dose 10 mg/kg (AZD4320 equivalent 10 for AZD4320, 3 for conjugates)

## CN(CCO)CCC(CSc1ccccc1)Nc1ccc(S(=O)(=O)NC(=O)c2ccc(N3CCC(C(O)c4ccccc4-c4ccc(Cl)cc4)CC3)cc2)cc1S(=O)(=O)C(F)(F)F (stereo not drawn) [AZD4320]
Cleaved caspase-3 (CC3); 0.5 h, 10 mg/kg
  CC3 PD fold over vehicle, individual tumours: 36.58 fold over vehicle and 31.76 fold over vehicle
Cleaved caspase-3 (CC3); 1 h, 10 mg/kg
  CC3 PD fold over vehicle, individual tumours: 36.44 fold over vehicle and 36.82 fold over vehicle
Cleaved caspase-3 (CC3); 5 h, 10 mg/kg
  CC3 PD fold over vehicle, individual tumours: 42.22 fold over vehicle and 39.06 fold over vehicle
Cleaved caspase-3 (CC3); 24 h, 10 mg/kg
  CC3 PD fold over vehicle, individual tumours: 21.02 fold over vehicle and 47.67 fold over vehicle
Cleaved caspase-3 (CC3); RS4;11 tumours, 10 mg/kg or equivalent
  time of onset of CC3 activation: ≤ 0.5 h
Cleaved caspase-3 (CC3); RS4;11 tumours, 10 mg/kg, by 5 h, sustained for 24 h
  maximal activation of cleaved caspase-3 (CC3): 40 fold
RS4;11 xenograft; Day 38, in mm³ (unit assumed)
  tumour volume, individual animals: 591 and 667 and 633 and 678
RS4;11 xenograft; Day 41, in mm³ (unit assumed)
  tumour volume, individual animals: 365 and 322 and 378 and 334
RS4;11 xenograft; Day 45, in mm³ (unit assumed)
  tumour volume, individual animals: 218 and 235 and 397 and 259
RS4;11 xenograft; Day 48
  tumour volume, individual animals: 0 (2×) and 160 and 156
RS4;11 xenograft; Day 52
  tumour volume, individual animals: 0 (3×) and 144
RS4;11 xenograft; Day 55
  tumour volume, individual animals: 0 (3×) and 87
RS4;11 xenograft; Day 59, in mm³ (unit assumed)
  tumour volume, individual animals: 144 and 155 and 220 and 196
RS4;11 xenograft; Day 63, in mm³ (unit assumed)
  tumour volume, individual animals: 388 and 353 and 396 and 530
RS4;11 xenograft; Day 66, in mm³ (unit assumed)
  tumour volume, individual animals: 257 and 221 and 387 and 438
RS4;11 xenograft; Day 69, in mm³ (unit assumed)
  tumour volume, individual animals: 351 and 316 and 514 and 702
RS4;11 xenograft; Day 73, in mm³ (unit assumed)
  tumour volume, individual animals: 1003 and 568 and 1069 and 1242
RS4;11 xenograft; RS4;11 tumours, IV, 10 mg/kg or equivalent
  anti-tumour activity: complete regression
RS4;11 xenograft; 10 mg/kg or equivalent, day 29, in mm³ (unit assumed)
  Tumour volume, Geo Mean: 450.827
RS4;11 xenograft; 10 mg/kg or equivalent, day 31, in mm³ (unit assumed)
  Tumour volume, Geo Mean: 419.877
RS4;11 xenograft; 10 mg/kg or equivalent, day 32, in mm³ (unit assumed)
  Tumour volume, Geo Mean: 128.263
RS4;11 xenograft; 10 mg/kg or equivalent, day 34, in mm³ (unit assumed)
  Tumour volume, Geo Mean: 1
RS4;11 xenograft; 10 mg/kg or equivalent, day 38, in mm³ (unit assumed)
  Tumour volume, Geo Mean: 1
RS4;11 xenograft; 10 mg/kg or equivalent, day 41, in mm³ (unit assumed)
  Tumour volume, Geo Mean: 1
RS4;11 xenograft; 10 mg/kg or equivalent, day 45, in mm³ (unit assumed)
  Tumour volume, Geo Mean: 1
RS4;11 xenograft; 10 mg/kg or equivalent, day 48, in mm³ (unit assumed)
  Tumour volume, Geo Mean: 1
RS4;11 xenograft; 10 mg/kg or equivalent, day 56, in mm³ (unit assumed)
  Tumour volume, Geo Mean: 4.217
RS4;11 xenograft; 10 mg/kg or equivalent, day 59, in mm³ (unit assumed)
  Tumour volume, Geo Mean: 31.9033
Telemetered rats; rat, 10 mg/kg AZD4320
  decrease in QRS amplitude: 40%
Telemetered rats; rat, 10 mg/kg AZD4320, 8 rats evaluated
  rats in which dose was tolerated: 6 of the 8
Telemetered rats; [1]
  QRS amplitude (mV change): 0 mV
  QRS amplitude (mV change), Mean: 0 mV
Telemetered rats; rat, AZD4320 10 mg/kg, 0.5 h post dose, 10 mg/kg
  QRS amplitude (mV change): 0.05 mV and -0.49 mV (2×) and -0.03 mV and 0.27 mV and -0.09 mV
Telemetered rats; rat, AZD4320 10 mg/kg, 0.5 h post dose
  QRS amplitude (mV change), Mean: -0.13 mV
Telemetered rats; rat, AZD4320 10 mg/kg, 1 h post dose, 10 mg/kg
  QRS amplitude (mV change): -0.55 mV and -0.92 mV and 0.04 mV and -0.24 mV and -0.19 mV and -0.87 mV
Telemetered rats; rat, AZD4320 10 mg/kg, 1 h post dose
  QRS amplitude (mV change), Mean: -0.46 mV
Telemetered rats; rat, AZD4320 10 mg/kg, 1.5 h post dose, 10 mg/kg
  QRS amplitude (mV change): -0.76 mV and -0.96 mV (2×) and 0.29 mV and -0.3 mV and -0.18 mV
Telemetered rats; rat, AZD4320 10 mg/kg, 1.5 h post dose
  QRS amplitude (mV change), Mean: -0.48 mV
Telemetered rats; rat, AZD4320 10 mg/kg, 2 h post dose, 10 mg/kg
  QRS amplitude (mV change): -0.73 mV and -0.96 mV and -0.38 mV and -0.26 mV (2×) and -1.03 mV
Telemetered rats; rat, AZD4320 10 mg/kg, 2 h post dose
  QRS amplitude (mV change), Mean: -0.60 mV
Telemetered rats; rat, AZD4320 10 mg/kg, 3 h post dose, 10 mg/kg
  QRS amplitude (mV change): -0.79 mV and -0.63 mV and -0.28 mV and -0.4 mV and -0.48 mV and -0.99 mV
Telemetered rats; rat, AZD4320 10 mg/kg, 3 h post dose
  QRS amplitude (mV change), Mean: -0.60 mV
Telemetered rats; rat, AZD4320 10 mg/kg, 3.5 h post dose, 10 mg/kg
  QRS amplitude (mV change): -0.8 mV and -0.81 mV and -0.54 mV and -0.38 mV and -0.47 mV and -1 mV
Telemetered rats; rat, AZD4320 10 mg/kg, 3.5 h post dose
  QRS amplitude (mV change), Mean: -0.67 mV
Telemetered rats; rat, AZD4320 10 mg/kg, 4 h post dose, 10 mg/kg
  QRS amplitude (mV change): -0.8 mV and -1.02 mV and -0.16 mV and -0.35 mV and -0.65 mV and -0.98 mV
Telemetered rats; rat, AZD4320 10 mg/kg, 4 h post dose
  QRS amplitude (mV change), Mean: -0.66 mV
Telemetered rats; rat, AZD4320 10 mg/kg, 6 h post dose, 10 mg/kg
  QRS amplitude (mV change): -0.76 mV and -1 mV and -0.2 mV and -0.16 mV and -0.57 mV and -0.7 mV
Telemetered rats; rat, AZD4320 10 mg/kg, 6 h post dose
  QRS amplitude (mV change), Mean: -0.57 mV
Telemetered rats; rat, AZD4320 10 mg/kg, 8 h post dose, 10 mg/kg
  QRS amplitude (mV change): -0.63 mV (3×) and 0.08 mV and -0.08 mV and -0.57 mV
Telemetered rats; rat, AZD4320 10 mg/kg, 8 h post dose
  QRS amplitude (mV change), Mean: -0.41 mV
Telemetered rats; rat, AZD4320 10 mg/kg, 10 h post dose, 10 mg/kg
  QRS amplitude (mV change): -0.56 mV and -0.75 mV and 0.54 mV and 0.03 mV and -0.61 mV and -0.59 mV
Telemetered rats; rat, AZD4320 10 mg/kg, 10 h post dose
  QRS amplitude (mV change), Mean: -0.32 mV
Telemetered rats; rat, AZD4320 10 mg/kg, 12 h post dose, 10 mg/kg
  QRS amplitude (mV change): -0.6 mV and -0.97 mV and -0.25 mV and 0.18 mV and -0.42 mV and -0.58 mV
Telemetered rats; rat, AZD4320 10 mg/kg, 12 h post dose
  QRS amplitude (mV change), Mean: -0.44 mV
Telemetered rats; rat, AZD4320 10 mg/kg, 16 h post dose, 10 mg/kg
  QRS amplitude (mV change): -0.44 mV and -0.8 mV and 0.61 mV and -0.14 mV and -0.6 mV and -0.72 mV
Telemetered rats; rat, AZD4320 10 mg/kg, 16 h post dose
  QRS amplitude (mV change), Mean: -0.35 mV
Telemetered rats; rat, AZD4320 10 mg/kg, 24 h post dose, 10 mg/kg
  QRS amplitude (mV change): -0.56 mV and -0.96 mV and -0.74 mV and -0.13 mV and -0.57 mV and -0.76 mV
Telemetered rats; rat, AZD4320 10 mg/kg, 24 h post dose
  QRS amplitude (mV change), Mean: -0.62 mV
Telemetered rats; rat, AZD4320 10 mg/kg, […] post dose
  QRS amplitude (mV change), Mean: -0.58 mV
Telemetered rats; [2]
  Blood pressure decrease: Yes
  QRS amplitude decrease: Yes
  Tolerated?: 6/8
Telemetered rats; telemetered rat, AZD4320 10 mg/kg, conjugates 30 mg/kg IV
  effect on QRS amplitude: marked and prolonged reduction in QRS amplitude
